We go through 82 compounds from the RepoRT retention time repository.

This data set is described as follows: RP, Waters ACQUITY UPLC HSS T3, 0.1 mL/min; A: water + 0.01% formic acid; B: acetonitrile + 0.01% formic acid; gradient (min/%B) 0/10 38/45 45/45 55/0 60/0. Particulars: stereoisomer not certain.
Regarding `CC12CCC3c4ccc(O)cc4CCC3C1CC(O)C2O` (configuration not stated) [Estriol], the LC retention time stood at 11.7 min.

`CN1COCN(Cc2cnc(Cl)s2)C1=N[N+](=O)[O-]` [Thiamethoxam]: the LC retention time is 6.97 min.

`CNC(=O)c1cc(Cl)cc(C)c1NC(=O)c1cc(Br)nn1-c1ncccc1Cl` [Chlorantraniliprole]: the LC retention time stood at 30.9 min.

On to `CCOC(=O)C1CC(=O)C(=C(O)C2CC2)C(=O)C1` (configuration not stated) [Trinexapac-ethyl], for which the LC retention time is 26.5 min.

With `Cc1nnc(-c2ccccc2)c(=O)n1N` [Metamitron], the LC retention time was found to be 8.55 min.

Regarding `O=C(Nc1ccccc1)N(Cc1ccc(Cl)cc1)C1CCCC1` [Pencycuron], the LC retention time was found to be 43.7 min.

For `CC(=O)C1(O)CCC2C3CCC4=CC(=O)CCC4(C)C3CCC21C` (configuration not stated) [Progesterone-17-hydroxy], the LC retention time worked out at 33.9 min.

Regarding `CC(=O)OCC[N+](C)(C)C` [Acetylcholine], the LC retention time was 1.39 min.

As for `Cn1cc(C(=O)Nc2ccc(F)cc2-c2ccc(Cl)c(Cl)c2)c(C(F)F)n1` [Bixafen], the LC retention time amounted to 42.2 min.

As for `CC12CCC3C(CCC4=CC(=O)CCC43C)C1CCC2=O` (configuration not stated) [Androstenedione], the LC retention time was determined as 31.5 min.

Regarding `CCCC1COC(Cn2cncn2)(c2ccc(Cl)cc2Cl)O1` (configuration not stated) [Propiconazole], the LC retention time was determined as 41.7 min.

Take `O=[N+]([O-])/N=C1\NCCN1Cc1ccc(Cl)nc1` [Imidacloprid]: the LC retention time turned out to be 8.57 min.

Turning to `CC(Cc1ccc(C(C)(C)C)cc1)CN1CCCCC1` (configuration not stated) [Fenpropidine], the LC retention time stood at 26.2 min.

In the case of `CCOP(=O)(SC(C)CC)N1CCSC1=O` (configuration not stated) [Fosthiazate], the LC retention time worked out at 22.2 min.

As to `CC(Oc1ccc(Cl)cc1Cl)C(=O)O` (configuration not stated) [Dichlorprop], the LC retention time was found to be 10 min.

On to `Oc1cc(Cl)ccc1Oc1ccc(Cl)cc1Cl` [Triclosan], for which the LC retention time amounted to 43.8 min.

Consider `Oc1ccccc1-c1ccccc1` [2-Phenylphenol], for which the LC retention time was 30.2 min.

Consider `CSc1nc(NC2CC2)nc(NC(C)(C)C)n1` [Irgarol], for which the LC retention time amounted to 29.9 min.

On to `Nc1cnn(-c2ccccc2)c(=O)c1Cl` [Chloridazon], for which the LC retention time is 9.25 min.

As to `C#CC(C)(C)NC(=O)c1cc(Cl)cc(Cl)c1` [Propyzamide], the LC retention time was 35.6 min.

Regarding `CCS(=O)(=O)c1nnc(N(C)C(=O)NC)s1` [Ethidimuron], the LC retention time turned out to be 9.06 min.

With `CCCCCC(O)C=CC1C(=O)CC(O)C1CC=CCCCC(=O)O` (configuration not stated) [Prostaglandin D2], the LC retention time was determined as 27.6 min.

Regarding `Cc1cnc2c(C(=O)O)c(Cl)ccc2c1` [Quinmerac], the LC retention time turned out to be 8.87 min.

As to `CCCCCC(O)C=CC1C(O)CC(=O)C1CC=CCCCC(=O)O` (configuration not stated) [Prostaglandin E2], the LC retention time was found to be 26.5 min.

With `COC(=O)c1ccc(O)cc1` [Methylparaben], the LC retention time turned out to be 10 min.

With `CN1CCCC1c1cccnc1` (configuration not stated) [Nicotine], the LC retention time amounted to 3.37 min.

Turning to `COc1ccc(C(=CC(=O)N2CCOCC2)c2ccc(Cl)cc2)cc1OC` [Dimethomorph], the LC retention time is 32.7 min.

`CC(C)N(Cc1ccccc1)C(=O)C(C)(C)C` [Tebutame]: the LC retention time is 39 min.

Take `CC(C)(C)C(O)C(Cc1ccc(Cl)cc1)n1cncn1` (configuration not stated) [Paclobutrazole]: the LC retention time amounted to 31.5 min.

For the compound `CS(=O)(=O)c1ccc(C(=O)C2C(=O)CCCC2=O)c([N+](=O)[O-])c1` [Mesotrione], the LC retention time was found to be 16.5 min.

As to `N#CN=C1SCCN1Cc1ccc(Cl)nc1` [Thiacloprid], the LC retention time came out at 12.2 min.

Regarding `CNC1CCC(c2ccc(Cl)c(Cl)c2)c2ccccc21` (configuration not stated) [Sertraline], the LC retention time was found to be 24.3 min.

`CC12CCC3c4cc(O)c(O)cc4CCC3C1CCC2=O` (configuration not stated) [Estrone-2-hydroxy]: the LC retention time was found to be 24.6 min.

For `CCCCCC=CCC(O)C=CC=CC=CC(O)CCCC(=O)O` (configuration not stated) [Leukotriene B4], the LC retention time was 39.5 min.

For `COCC(C)N(C(=O)CCl)c1c(C)csc1C` (configuration not stated) [Dimethenamid], the LC retention time is 32.5 min.

Consider `CNC(=O)Nc1ccc(Cl)c(Cl)c1` [1-(3,4-Dichlorophenyl)-3-methylurea], for which the LC retention time was determined as 20.5 min.

With `O=C(O)Cc1ccccc1Nc1c(Cl)cccc1Cl` [Diclofenac], the LC retention time came to 39.6 min.

`COC=C(C(=O)OC)c1ccccc1Oc1cc(Oc2ccccc2C#N)ncn1` [Azoxystrobin]: the LC retention time stood at 38 min.

Turning to `CCC(C)(CC)c1cc(NC(=O)c2c(OC)cccc2OC)on1` [Isoxaben], the LC retention time was found to be 39 min.

Turning to `CCC(Oc1ccc(F)c(C(F)(F)F)c1)C(=O)NCc1ccccc1` (configuration not stated) [Beflubutamid], the LC retention time is 42.7 min.

On to `COc1cc(OC)n2nc(S(=O)(=O)Nc3c(Cl)ccc(C)c3Cl)nc2n1` [Metosulam], for which the LC retention time amounted to 24.8 min.

Turning to `CCOCN(C(=O)CCl)c1c(C)cccc1CC` [Acetochlor], the LC retention time came out at 40.6 min.

Take `CCNc1nc(NC(C)(C)C)[nH]c(=O)n1` [Tertbutylazine-2-hydroxy]: the LC retention time was 8.38 min.

As for `N[C@@H](Cc1cc(I)c(Oc2cc(I)c(O)c(I)c2)c(I)c1)C(=O)O` [L-thyroxine], the LC retention time is 25.6 min.

With `CCCN(CCC)c1c([N+](=O)[O-])cc(S(N)(=O)=O)cc1[N+](=O)[O-]` [Oryzalin], the LC retention time was 41.2 min.

Regarding `CC1(C)CCC(=Cc2ccc(Cl)cc2)C1(O)Cn1cncn1` (configuration not stated) [Triticonazole], the LC retention time stood at 33.8 min.

On to `CCNc1nc(Cl)nc(NC(C)(C)C)n1` [Terbuthylazine], for which the LC retention time turned out to be 30.6 min.

Take `COCC(=O)N(c1c(C)cccc1C)C(C)C(=O)OC` (configuration not stated) [Metalaxyl]: the LC retention time stood at 24.3 min.

As to `COP(=S)(S)OC` [Dimethyldithiophosphate], the LC retention time came to 2.95 min.

For `CC12CCC3c4ccc(O)cc4CCC3C1CCC2=O` (configuration not stated) [Estrone], the LC retention time was determined as 31.6 min.

With `COc1ccc(C(CN(C)C)C2(O)CCCCC2)cc1` (configuration not stated) [Venlafaxine], the LC retention time amounted to 9.84 min.

As to `CC(=O)C1CCC2C3CCC4=CC(=O)CCC4(C)C3CCC12C` (configuration not stated) [Progesterone], the LC retention time stood at 42.1 min.

In the case of `CC12CCC(=O)C=C1CCC1C2CCC2(C)C(O)CCC12` (configuration not stated) [Testosterone], the LC retention time came to 28.9 min.

With `CCCCCC=CCC=CCC=CCC=CCCCC(=O)O` [Arachidonic Acid], the LC retention time turned out to be 47 min.

Turning to `CNC(=O)N(C)c1nc2ccccc2s1` [Methabenzthiazuron], the LC retention time came out at 19.4 min.

With `COc1ccc2c3c1OC1C(O)C=CC4C(C2)N(C)CCC341` (configuration not stated) [Codeine], the LC retention time stood at 5.12 min.

With `CC(C(=O)O)c1cccc(C(=O)c2ccccc2)c1` (configuration not stated) [Ketoprofen], the LC retention time is 28.3 min.

For `NCCc1c[nH]c2ccc(O)cc12` [5-Hydroxytryptamine], the LC retention time came out at 4.3 min.

On to `CCc1cccc(C)c1N(C(=O)CCl)C(C)COC` (configuration not stated) [Metolachlor], for which the LC retention time was 26.7 min.

Turning to `CN1CCCC1c1ccc[n+](C2OC(C(=O)[O-])C(O)C(O)C2O)c1` (configuration not stated) [Nicotine Glucuronide], the LC retention time was 1.3 min.

For the compound `CC(C)C1(C)N=C(c2nc3ccccc3cc2C(=O)O)NC1=O` (configuration not stated) [Imazaquin], the LC retention time was 16.3 min.

For `Cc1cccc(C)c1N(Cn1cccn1)C(=O)CCl` [Metazachlore], the LC retention time amounted to 26.6 min.

Turning to `CCNc1nc(NC(C)(C)C)nc(SC)n1` [Terbutryne], the LC retention time is 28 min.

In the case of `CCC(C)n1c(=O)[nH]c(C)c(Br)c1=O` (configuration not stated) [Bromacil], the LC retention time is 14.3 min.

In the case of `CCc1cccc(CC)c1N(COC)C(=O)CCl` [Alachlor], the LC retention time amounted to 39.4 min.

Take `CCNc1nc(NC(C)C)nc(SC)n1` [Ametryn]: the LC retention time came out at 20.1 min.

With `CC(Cc1ccc(C(C)(C)C)cc1)CN1CC(C)OC(C)C1` (configuration not stated) [Fenpropimorph], the LC retention time came out at 30.1 min.

As to `CON(C)C(=O)Nc1ccc(Cl)c(Cl)c1` [Linuron], the LC retention time worked out at 31.7 min.

With `Cc1cc(Cl)ccc1OCC(=O)O` [2,4-mcpa], the LC retention time was found to be 17.2 min.

As for `Cc1ccc(NC(=O)N(C)C)cc1Cl` [Chlortoluron], the LC retention time stood at 20.5 min.

Regarding `CC(C)Cc1ccc(C(C)C(=O)O)cc1` (configuration not stated) [Ibuprofen], the LC retention time is 39.9 min.

Consider `CC(=O)Oc1ccccc1C(=O)O` [Acetylsalicylic acid], for which the LC retention time was 8.55 min.

Take `NC(=O)Nc1ccc(Cl)c(Cl)c1` [1-(3,4-Dichlorophenyl)urea]: the LC retention time worked out at 16.9 min.

`CN1C(=O)CCC1c1ccc[n+](C2OC(C(=O)[O-])C(O)C(O)C2O)c1` (configuration not stated) [Cotinine glucuronide]: the LC retention time stood at 1.4 min.

On to `O=C(O)Cc1c[nH]c2ccc(O)cc12` [Hydroxyindoleacetic acid], for which the LC retention time turned out to be 5.71 min.

With `COc1cc2c(c3oc(=O)c4c(c13)CCC4=O)C1C=COC1O2` (configuration not stated) [Aflatoxin B1], the LC retention time is 17.5 min.

For `CCOP(=S)(OCC)Oc1nc(Cl)c(Cl)cc1Cl` [Chlorpyrifos], the LC retention time was 45.5 min.

As to `CC(=O)C1CCC2C3CCC4CC(O)CCC4(C)C3CCC12C` (configuration not stated) [Allopregnanolone], the LC retention time was determined as 43.9 min.

For `CC12CCC(=O)C=C1CCC1C2C(=O)CC2(C)C1CCC2(O)C(=O)CO` (configuration not stated) [Cortisone], the LC retention time stood at 16.1 min.

With `COCc1cnc(C2=NC(C)(C(C)C)C(=O)N2)c(C(=O)O)c1` (configuration not stated) [Imazamox], the LC retention time amounted to 9.34 min.

For `CC(C)(C)C(=O)OCOC(=O)C1N2C(=O)C(N=CN3CCCCCC3)C2SC1(C)C` (configuration not stated) [Pivmecillinam], the LC retention time was found to be 26.4 min.

`CC(C)(C)C(O)(CCc1ccc(Cl)cc1)Cn1cncn1` (configuration not stated) [Tebuconazole]: the LC retention time amounted to 39.5 min.
